Measurements published in US20040147500A1, “Injectable galenic formulation for use in a diagnosis or a photodynamic therapy and method for preparing same” (priority 2001, published 2004).

Assays:
[1] = test system: rats (Sprague Dawley), rabbits (New-Zealand albino), monkeys (Cynomolgus); assay type: in vivo; conditions: intravenous, injection speeds up to 4 ml/min
Method: Male rats (Sprague Dawley): 6 to 12 animals for each dose (2×5, 2×10 and 2×20 mg/kg. The product was injected intravenously into the caudal vein.
Rabbits (New-Zealand albino rabbits): 5 animals received the dose of 5 mg/kg. The product was injected three times intravenously, once intra-arterially and once perivenously.
Monkeys (Cynomolgus, of a weight varying from 2.5 to 3.2 kg): 6 to 10 animals of each sex for each dose (1, 2, 5 and 6 mg/kg). The product was injected intravenously into the saphenous vein or into the cephalic vein, once each day during 14 days.
Monkeys (Cyonomolgus of a weight varying from 2.25 to 4.7 kg): 3 to 6 animals for each dose (2 and 5 mg/kg). The product was injected intravenously into the saphenous vein or into the cephalic vein.
The assessment of the animals was made on the basis of clinical signs, biological analyses carried out on the blood and on the urine, cardiovascular examinations and of histopathological examinations.

[2] = test system: mice (OF), rats (Sprague Dawley), monkeys (Cynomolgus); assay type: in vivo; conditions: intravenous, provided the injections were made slowly
Method: 1—Mice (OF, of a weight varying from 25 to 35 grams): 10 animals of each sex for each dose (2×25, 2×50, 2×75 and 1×100 mg/kg).The product was injected into the caudal vein.
2—Rats (Sprague Dawley, of a weight varying from 150 to 230 grams): 4 to 10 animals of each sex for each dose (from 4 to 200 mg/kg). The product was injected into the caudal vein.
3—Monkeys (Cynomolgus of a weight varying from 1.8 kg to 3.5 kg): 1 animal of each sex for each dose (8, 16 and 24 mg/kg). The product was injected into the saphenous vein or into the cephalic vein once a day during 7 days.
The assessment of the animals was made on the basis of clinical signs, biological analyses carried out on the blood and the urine and of histopathological examinations.

[3] = in vivo; cited from earlier work

Substance: Pd-bacteriopheophorbide a [Pd-Bpheide a]
- tolerance in toxicity studies [1]: well tolerated
- tolerance in toxicity studies [2]: well tolerated
- cutaneous and ocular photosensitisation [3]: no or little cutaneous photosensitisation
